# In patent publication US12240854B2, “TRAF 6 inhibitors” (Helmholtz Zentrum München - Deutsches Forschungszentrum für …, priority 2018, dated 2025):
# Target: T1, TRAF6WTStrepII-Ubc13FH interaction (Homo sapiens, UniProt Q9Y4K3)
# T1 construct: RING-Zincfinger1 (RZ1) domain (residues 50-159) of human TRAF6 wildtype; made in house; host or cells: E. coli BL21 codon plus RIPL
# T1 sequence (Q9Y4K3 with tags, fused parts or gaps): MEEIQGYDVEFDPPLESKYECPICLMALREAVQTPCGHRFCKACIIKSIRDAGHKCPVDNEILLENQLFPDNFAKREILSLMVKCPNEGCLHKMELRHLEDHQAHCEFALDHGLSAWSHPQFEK
# Assay: ALPHAScreen TRAF6-Ubc13 interaction assay
# Assay type: binding
# Settings: TRAF6 100 nM, Ubc13FH 75 nM; class symbols; read-out: IC50 Alphascreen (inhibition of TRAF6-UBC13 interaction)
# Source text: In order to identify small molecules that specifically target the RZ1 domain of TRAF6 and thereby prevent its binding to Ubc13, the ALPHAScreen technology (PerkinElmer) was chosen to detect TRAF6WTStrepII-Ubc13FH interaction in High-Throughput-Screenings as well as Structure Activity Relationship (SAR) analysis.
# For performance of an automated ALPHAScreen assay, all following components were pre-diluted in ALPHAScreen buffer (1×PBS, 0.5% BSA, 0.01% Tween-20). First, the TRAF6 protein (end concentration 100 nM, 30 μL volume) was added to 384-well-opti-plates involving the MultiFlo dispensing system (BioTek) followed by transfer of the compounds via the Sciclone G3 transfer station (PerkinElmer). After addition of Ubc13FH (end concentration 75 nM, 10 μL volume) with the MultiFlo system and incubation for one hour at room temperature, both beads (Strep-Tactin Alpha Donor beads and Nickel-Chelate acceptor beads; end concentrations 4 μg each, 10 μL volume each) were mixed and added using the MultiFlo system in subdued light. Read-out of the plates occurred after another hour of incubation at room temperature. Statistical parameters including the coefficient of variation, Z′ factor and signal window were calculated to determine the quality of the HTS campaign. To evaluate the efficacy of the compounds, ALPHAScreen units of compound-treated samples were referred to DMSO control treated samples. Thereby, the TRAF6D57K mutant served as the control for minimum signal and was included on every plate of the screening. Compounds that inhibited TRAF6WTStrepII-Ubc13FH by more than 25% were considered as actives. After elimination of ALPHAScreen frequent hitter compounds and His-tag frequent hitters (Schorpp, K., I. Rothenaigner, E. Salmina, et al., Identification of Small-Molecule Frequent Hitters from AlphaScreen High-Throughput Screens. J Biomol Screen, 2014. 19(5): p. 715-26), 178 compounds were defined as primary hits and were subsequently tested in five-point serial dilution assays (2.5-40 μM) in TRAF6WTStrepII-Ubc13FH ALPHAScreen experiments. Only compounds with dose-dependent effects on TRAF6WTStrepII-Ubc13FH (n=27) were taken for further research. For analog testing, all compounds were analyzed in ten-point titration (0.2-100 μM) in TRAF6WTStrepII-Ubc13FH ALPHAScreen experiments. In parallel, the compounds were tested in the ALPHAScreen TruHits Kit (PerkinElmer) to rule out unspecific interference with the ALPHAScreen technology.
IC50 [µM],inhibition at 100 µM [%],SMILES
≤ 3,,COC(=O)c1ccc(CN2CCN(C(=O)CCc3c(C)nn(-c4ccc5nnc(C)n5n4)c3C)CC2)cc1 [Example 96]
≤ 3,,Cc1nn(-c2ccc3nnc(C)n3n2)c(C)c1CCC(=O)N1CCN(Cc2ccc(C(=O)O)cc2)CC1 [Example 97]
≤ 10,,COC(=O)c1cccc(CN2CCN(C(=O)CCc3c(C)nn(-c4ccc5nnc(C)n5n4)c3C)CC2)c1 [Example 98]
≤ 3,,Cc1nn(-c2ccc3nnc(C)n3n2)c(C)c1CCC(=O)N1CCN(Cc2cccc(C(=O)O)c2)CC1 [Example 99]
,≥ 30,Cc1nn(-c2ccc3nnc(C)n3n2)c(C)c1CCC(=O)N1CCN(Cc2cccc(C(N)=O)c2)CC1 [Example 100]
≤ 30,,CNC(=O)c1cccc(CN2CCN(C(=O)CCc3c(C)nn(-c4ccc5nnc(C)n5n4)c3C)CC2)c1 [Example 101]
≤ 30,,Cc1nn(-c2ccc3nnc(C)n3n2)c(C)c1CCC(=O)N1CCNC(Cc2ccccc2)C1 (stereo not shown) [Example 102]
,≥ 30,Cc1nn(-c2ccc3nnc(C)n3n2)c(C)c1CCC(=O)N1CCCC(Cc2ccccc2)C1 (stereo not shown) [Example 103]
,≥ 30,Cc1nn(-c2ccc3nnc(C)n3c2)c(C)c1CCC(=O)N1CCC(CCc2ccccc2)CC1 [Example 104]
,≥ 30,Cc1nn(-c2ccc3nnc(C)n3c2)c(C)c1CCC(=O)N1CCN(Cc2ccccc2)CC1 [Example 105]
,≥ 30,Cc1nn(-c2ccc3nnc(C)n3c2)c(C)c1CCC(=O)N1CCCC(Cc2ccccc2)C1 (stereo not shown) [Example 106]
,≥ 30,Cc1nn(-c2ccc3nnc(C)n3c2)c(C)c1CCC(=O)N1CCC(Cc2ccccc2)C1 (stereo not shown) [Example 107]
≤ 10,,CC(=O)c1ccc(CN2CCN(C(=O)CCc3c(C)nn(-c4ccc5nnc(C)n5n4)c3C)CC2)cc1 [Example 108]
≤ 30,,Cc1nn(-c2ccc3nnc(C)n3n2)c(C)c1CCC(=O)N1CCN(Cc2ccc(C#N)cc2)CC1 [Example 109]
≤ 30,,Cc1nn(-c2ccc3nnc(C)n3n2)c(C)c1CCC(=O)N1CCN(Cc2ccc(C(F)(F)F)cc2)CC1 [Example 110]
≤ 30,,Cc1nn(-c2ccc3nnc(C)n3n2)c(C)c1CCC(=O)N1CCN(Cc2ccc(I)cc2)CC1 [Example 111]
≤ 10,,CC(=O)Nc1ccc(CN2CCN(C(=O)CCc3c(C)nn(-c4ccc5nnc(C)n5n4)c3C)CC2)cc1 [Example 112]
≤ 10,,Cc1nn(-c2ccc3nnc(C)n3n2)c(C)c1CCC(=O)N1CCN(Cc2ccc(-c3ccccc3)cc2)CC1 [Example 113]
≤ 10,,Cc1nn(-c2ccc3nnc(C)n3n2)c(C)c1CCC(=O)N1CCN(Cc2ccc(N(C)C)cc2)CC1 [Example 114]
≤ 3,,Cc1nn(-c2ccc3nnc(C)n3n2)c(C)c1CCC(=O)N1CCN(Cc2ccc([N+](=O)[O-])cc2)CC1 [Example 115]

IC50 [µM],inhibition at 100 µM [%],SMILES
≤ 3,,Cc1nn(-c2ccc3nnc(C)n3n2)c(C)c1CCC(=O)N1CCN(Cc2ccc(S(C)(=O)=O)cc2)CC1 [Example 116]
≤ 10,,Cc1nn(-c2ccc3nnc(C)n3n2)c(C)c1CCC(=O)N1CCN(Cc2ccc(NS(C)(=O)=O)cc2)CC1 [Example 117]
≤ 10,,Cc1nn(-c2ccc3nnc(C)n3n2)c(C)c1CCC(=O)N1CCN(Cc2ccc(C(N)=O)cc2)CC1 [Example 118]
≤ 3,,Cc1nn(-c2ccc3nnc(C)n3n2)c(C)c1CCC(=O)N1CCC(C)(Cc2ccccc2)C1 (stereo not shown) [Example 119]
≤ 3,,Cc1cc(C(=O)O)ccc1CN1CCN(C(=O)CCc2c(C)nn(-c3ccc4nnc(C)n4n3)c2C)CC1 [Example 121]
≤ 3,,Cc1cc(CN2CCN(C(=O)CCc3c(C)nn(-c4ccc5nnc(C)n5n4)c3C)CC2)ccc1[N+](=O)[O-] [Example 122]
≤ 3,,Cc1nn(-c2ccc3nnc(C)n3n2)c(C)c1CCC(=O)N1CCN(Cc2ccc(O)c(Cl)c2)CC1 [Example 123]
≤ 3,,CC(=O)c1cccc(CN2CCN(C(=O)CCc3c(C)nn(-c4ccc5nnc(C)n5n4)c3C)CC2)c1 [Example 125]
≤ 3,,Cc1nn(-c2ccc3nnc(C)n3n2)c(C)c1CCC(=O)N1CCN(Cc2cccc(C#N)c2)CC1 [Example 126]
≤ 10,,Cc1nn(-c2ccc3nnc(C)n3n2)c(C)c1CCC(=O)N1CCN(Cc2ccccc2C#N)CC1 [Example 127]
≤ 10,,Cc1nn(-c2ccc3nnc(C)n3n2)c(C)c1CCC(=O)N1CCN(Cc2cccc(-c3ccccc3)c2)CC1 [Example 128]
≤ 3,,Cc1cc(CN2CCN(C(=O)CCc3c(C)nn(-c4ccc5nnc(C)n5n4)c3C)CC2)cc([N+](=O)[O-])c1 [Example 129]
≤ 3,,Cc1nn(-c2ccc3nnc(C)n3n2)c(C)c1CCC(=O)N1CCN(Cc2ccc(S(N)(=O)=O)cc2)CC1 [Example 130]
≤ 3,,Cc1nn(-c2ccc3nnc(C)n3n2)c(C)c1CCC(=O)N1CCN(Cc2ccc(C(=O)O)c(F)c2)CC1 [Example 131]
≤ 10,,Cc1nn(-c2ccc3nnc(C)n3n2)c(C)c1CCC(=O)N1CCN(Cc2ccc(Cl)cc2Cl)CC1 [Example 132]
≤ 10,,Cc1cccc(CN2CCN(C(=O)CCc3c(C)nn(-c4ccc5nnc(C)n5n4)c3C)CC2)c1 [Example 133]
≤ 3,,Cc1nn(-c2ccc3nnc(C)n3n2)c(C)c1CCC(=O)N1CCN(Cc2cccc(I)c2)CC1 [Example 134]
≤ 3,,Cc1nn(-c2ccc3nnc(C)n3n2)c(C)c1CCC(=O)N1CCN(Cc2ccc(Cl)c(Cl)c2)CC1 [Example 135]
≤ 10,,Cc1nn(-c2ccc3nnc(C)n3n2)c(C)c1CCC(=O)N1CCN(Cc2ccc(C(F)(F)F)c(F)c2)CC1 [Example 136]
≤ 10,,Cc1nn(-c2ccc3nnc(C)n3n2)c(C)c1CCC(=O)N1CCN(Cc2ccc3cn[nH]c3c2)CC1 [Example 137]

IC50 [µM],inhibition at 100 µM [%],SMILES
≤ 10,,Cc1nn(-c2ccc3nnc(C)n3n2)c(C)c1CCC(=O)N1CCN(Cc2cccc3ncccc23)CC1 [Example 138]
≤ 30,,Cc1ccc(CN2CCN(C(=O)CCc3c(C)nn(-c4ccc5nnc(C)n5n4)c3C)CC2)cc1 [Example 139]
≤ 30,,Cc1nn(-c2ccc3nnc(C)n3n2)c(C)c1CCC(=O)N1CCN(Cc2ccc(F)c(F)c2)CC1 [Example 140]
≤ 30,,Cc1nn(-c2ccc3nnc(C)n3n2)c(C)c1CCC(=O)N1CCN(Cc2cccc3ccccc23)CC1 [Example 141]
≤ 10,,Cc1nn(-c2ccc3nnc(C)n3n2)c(C)c1CCC(=O)N1CCN(Cc2c(Cl)cccc2Cl)CC1 [Example 142]
≤ 30,,Cc1nn(-c2ccc3nnc(C)n3n2)c(C)c1CCC(=O)N1CCN(Cc2ccc(Cl)cc2)CC1 [Example 143]
≤ 10,,Cc1nn(-c2ccc3nnc(C)n3n2)c(C)c1CCC(=O)N1CCN(Cc2ccccc2Cl)CC1 [Example 144]
≤ 10,,Cc1nn(-c2ccc3nnc(C)n3n2)c(C)c1CCC(=O)N1CCC(CCc2ccccc2)CC1 [Example 145]
≤ 3,,Cc1nn(-c2ccc3nnc(C)n3n2)c(C)c1CCC(=O)N1CCN(Cc2cc(F)c(O)c(F)c2)CC1 [Example 146]
≤ 10,,Cc1nn(-c2ccc3nnc(C)n3n2)c(C)c1CCC(=O)N1CCN(Cc2cccc([N+](=O)[O-])c2)CC1 [Example 149]
≤ 10,,Cc1nn(-c2ccc3nnc(C)n3n2)c(C)c1CCC(=O)N1CCN(Cc2ccc3cccnc3c2)CC1 [Example 150]
≤ 10,,Cc1nn(-c2ccc3nnc(C)n3n2)c(C)c1CCC(=O)N1CCN(Cc2cccc(C(N)=O)c2)CC1 [Example 151]
≤ 3,,Cc1nn(-c2ccc3nnc(C)n3n2)c(C)c1CCC(=O)N1CCN(Cc2cccc3cccnc23)CC1 [Example 153]
≤ 3,,Cc1nn(-c2ccc3nnc(C)n3n2)c(C)c1CCC(=O)N1CCN(Cc2cccc(-c3nn[nH]n3)c2)CC1 [Example 154]
≤ 3,,Cc1nn(-c2ccc3nnc(C)n3n2)c(C)c1CCC(=O)N1CCN(Cc2cccc(S(C)(=O)=O)c2)CC1 [Example 155]
≤ 10,,Cc1nn(-c2ccc3nnc(C)n3n2)c(C)c1CCC(=O)N1CCN(Cc2cccc(NS(C)(=O)=O)c2)CC1 [Example 156]
≤ 10,,COc1ccc(CN2CCN(C(=O)CCc3c(C)nn(-c4ccc5nnc(C)n5n4)c3C)CC2)cc1 [Example 157]
≤ 10,,Cc1nn(-c2ccc3nnc(C)n3n2)c(C)c1CCC(=O)N1CCN(Cc2cccc(F)c2)CC1 [Example 158]
